According to PubChem BioAssay AID179 (DTP/NCI, 2004):
“And” between values parts separate entries of the source, which are not always exact repeats. Equal values may be shown once. The source made the active and inactive calls.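 The calls were made as follows: active = compounds giving half or more protection of infected cells from virus-caused growth loss, again on retest; inactive = the rest.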

Test system: CEM cells HIV-1 protection, formazan growth assay
Test: NCI AIDS Antiviral Assay
Details: for IC50: measured here: growth of uninfected CEM cells
Procedure, shortened: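 Category rules: moderately active means at least 50% protection on retest, and confirmed active means 100% protection reproducibly. The underlying data came from a formazan growth assay in HIV-1-infected CEM cells.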

Row | Compound | EC50 [µM] | IC50 | outcome
1 | COc1ccc(C2C=C(c3ccc(C)cc3)N(c3ccc(OC)cc3[N+](=O)[O-])C3C(=O)OC(=O)C23)c(OC)c1 (stereo not given) | > 200 | 31.6 µM | 
2 | Cc1cc(C(c2cc(C)c(O)c(C(=O)O)c2)c2cc(C)c(O)c(C(=O)O)c2)cc(C(=O)O)c1O | > 269 | > 269 µM | 
3 | CNCCC=C1c2ccccc2CCc2ccccc21 | > 200 | 28.8 µM and 33.1 µM | 
4 | CCOC(=O)CNCc1cc(=O)[nH]c2cc(Cl)ccc12 | > 200 | 40.7 µM | 
5 | NC1=NC(=O)C(CC(=O)c2ccc(Cl)cc2)S1 (stereo not given) | > 200 | > 200 µM | 
6 | CC(C)C/C(CC(=O)CCC(=O)Nc1ccccc1[N+](=O)[O-])=N\NC(=O)c1cc2ccccc2cc1O | > 70.8 | 11.7 µM | 
7 | O=C(CC(O)(C(F)(F)Cl)C(F)(F)Cl)CC(O)(C(F)(F)Cl)C(F)(F)Cl |  |  | inactive
8 | CC1C2=C(CN3C[C@H](C)CCC13)C1CC3C(C[C@@H](O)C4C[C@@H](O)CC[C@]34C)C1CC2 (stereo not given in full) | > 22.9 | > 22.9 µM | 
9 | O=C(NC(=O)c1c(Cl)nc2sccn12)Nc1ccc(Cl)cc1 | > 10 | > 10 µM | 
10 | Cc1cc(C)c2c(c1)C(=O)C1(C2)Cc2c(ccc(C)c2C)C1=O (stereo not given) | > 100 | > 100 µM | 
11 | Cc1ccc(CC2(OCCN(C)C)CCC(C(C)(C)C)CC2)cc1 (stereo not given) | > 200 | 3.16 µM and 2.95 µM | 
12 | COc1cccc(/C=N/[N-]C(N)=O)c1[O-].[Cu+2].[OH3+].c1ccc(-c2ccccn2)nc1 |  |  | inactive
13 | COC(=O)c1c(C)cc(OC(=O)c2c(C)cc(O)c(/C=N\Nc3ccccc3)c2O)c(C)c1O | > 200 | 9.77 µM | 
14 | CCn1nc(C)c2c1C(=O)NCC(=O)N2 | > 200 | > 200 µM | 
15 | CC(C)(C)CS(=O)(=O)O.[Ag] | > 200 | 10.5 µM | 
16 | CCC1CCC2CCCC(C)N12 (stereo not given) | > 1480 | > 1480 µM | 
17 | CCOC(=O)/C=C/c1ccc([N+](=O)[O-])cc1 | > 32.4 | > 32.4 µM | 
18 | C=C1c2nc3ccccc3n2C=C(c2ccccc2)N1c1ccc([N+](=O)[O-])cc1 | > 200 | 42.7 µM | 
19 | Clc1cccc(N=C/C=C/Nc2cccc(Cl)c2)c1 | > 200 | 30.9 µM | 
20 | C=C=C(C)C(c1ccccc1)N(C)C (stereo not given) | > 1050 | > 1050 µM | 
21 | Clc1nc(Nc2nc3ccccc3[nH]2)nc(Cl)c1-c1ccccc1 |  |  | inactive
22 | CC(C)(C)OC(=O)N[C@@H]1C(=O)N2CCCOC12 (stereo not given in full) |  |  | inactive
23 | CC(=O)CCC#Cc1ccccc1C(=O)C(C)=[N+]=[N-] | > 50.1 | > 50.1 µM | 

Row | Compound | EC50 [µM] | IC50 | outcome
24 | CC1CC(C)CN(Cc2cccnc2)C1 (stereo not given) |  |  | inactive
25 | CNC(=O)C(C)NC(=O)C(Cc1ccccc1)NC(=O)c1ccccc1 (stereo not given) | > 200 | > 200 µM | 
26 | COc1cc2c(cc1OCCCCCN1C(=O)c3cccc4cccc(c34)C1=O)N=C[C@@H]1CCCN1C2=O | > 2 | 1.1 µM | 
27 | Cc1cccc(C)c1NC(=S)NC=C(C(N)=O)C(N)=O | > 200 | > 200 µM | 
28 | CN(C)CC1CCc2ccccc2C1=O (stereo not given) |  |  | inactive
29 | CC1CC(=O)N(N(C)C)C(C#N)(C#N)C1(C#N)C#N (stereo not given) | > 200 | 3.16 µM | 
30 | NCc1ccc(-c2ccc(-c3ccc(-c4ccc(CN)s4)s3)s2)s1 | > 100 | 72.4 µM | 
31 | Cn1c(C(O)C2(c3cccnc3)SCCCS2)cc2ccccc21 (stereo not given) | > 200 | 75.9 µM | 
32 | COc1ccccc1C(=O)N(C)c1ccc(Cl)c(C(=O)OC(C)C)c1 |  |  | inactive
33 | [O-][n+]1c(CCl)nc2ccccc2c1-c1ccccc1F | > 34.7 | > 34.7 µM | 
34 | COC(=O)c1cc2cc(O)c(O)cc2cn1 | > 200 | > 8.32 µM and 12 µM | 
35 | CCc1cccc(CC)c1Nc1nc2c(s1)C(=O)c1ccccc1C2=O | > 200 | 33.1 µM | 
36 | O=C(CN1CCN(c2cccc(Cl)c2)CC1)N1CCc2c([nH]c3ccccc23)C1c1cccnc1 (stereo not given) | > 2.14 | > 2.14 µM | 
37 | COc1ccc(CC(=O)NC(C)Cc2ccc(OC)c(OC)c2)cc1OC (stereo not given) |  |  | inactive
38 | c1ccc(-c2nc3ccccc3nc2-c2ccccn2)nc1 | > 200 | > 200 µM | 
39 | CCCCCCCCN(/N=C/c1c2c(O)c3c(O)c(C)c4c(c3c1O)C(=O)C(C)(O/C=C\C(OC)C(C)C(OC(C)=O)C(C)C(O)C(C)C(O)C(C)/C=C/C=C(C)C(=O)N2)O4)C12CC3CC(CC(C3)C1)C2 (stereo not given) | > 200 | 8.91 µM | 
40 | CCOc1cnn(-c2ccccc2)c(=O)c1SCc1ccc(Cl)c(Cl)c1 | > 33.1 | 18.6 µM | 
41 | CCSCCCCCCCCCCCC(=O)O | 9.33 | 32.4 µM | 
42 | O=C(Nc1cc(Cl)ccc1Cl)C(=O)C(c1cnc2ccccc2n1)[N+](=O)[O-] (stereo not given) | > 89.1 | 38.9 µM | 
43 | COC(=O)[C@@H]1CN(C(=O)c2ccccc2)C(=O)N1C(=O)OCc1ccccc1 | > 200 | > 200 µM | 
44 | NC1=NN(c2ccccc2)C2(O)c3ccncc3C3=NN(c4ccccc4)C(=O)C132 (stereo not given) | > 200 | > 200 µM | 
45 | COc1cc(Cc2cc3c(c(C(=O)O)c2Br)OCO3)cc(OC)c1OC | > 200 | 44.7 µM | 
46 | Cc1c([N+](=O)[O-])ccc2c1C(=O)c1ccccc1C2=O | > 200 | 28.2 µM | 

Row | Compound | EC50 [µM] | IC50 | outcome
47 | O=C(O)c1cc(C(=C(c2cc(Cl)c(O)c(C(=O)O)c2)c2cc(Cl)c(O)c(C(=O)O)c2)c2cc(Cl)c(O)c(C(=O)O)c2)cc(Cl)c1O | 87.1 | 95.5 µM | 
48 | Cc1ccc(S(=O)(=O)SCC(=O)c2ccc([N+](=O)[O-])cc2)cc1 |  | 102 µM | inactive
49 | C(=N\Nc1ccccn1)/c1ccccn1.C(=N\Nc1ccccn1)/c1ccccn1.[Cl-].[Fe+3] | > 200 | 117 µM | 
50 | NC(=O)c1ccc(NN=O)nc1 | > 200 | > 200 µM | 
51 | O=C1CCC2(CC1CCSc1ccccc1)OCCO2 (stereo not given) | > 200 | 126 µM | 
52 | O=Nc1c(NO)ccc2nn(-c3ccccc3)nc12 | > 20 | 1.32 µM | 
53 | O=c1c2cc(Br)ccc2oc2ccc(Br)cc12 |  |  | inactive
54 | O=C1/C(=C/c2ccc([N+](=O)[O-])cc2)CNC/C1=C\c1ccc([N+](=O)[O-])cc1 | > 2 | 0.363 µM | 
55 | C1=C(c2ccccc2)CN(c2ccccc2)OC1 | > 57.5 | > 57.5 µM | 
56 | CN=C(NC#N)N(Cc1ccccc1)Cc1ccccc1 | > 129 | > 100 µM | 
57 | Oc1cc(O)cc(/C=C/c2ccc(O)c(O)c2)c1 |  |  | inactive
58 | Cc1ccc(C2CC(c3ccco3)=NN2c2ccccc2)o1 (stereo not given) | > 17.8 | > 17.8 µM | 
59 | Cc1cccc(CC(=O)c2ccccc2)n1 | > 200 | 53.7 µM | 
60 | NC1=NS(=O)(=O)Nc2nc[nH]c21 | > 1320 | > 1320 µM | 
61 | CC1=NN(C(=O)CC(=O)Nc2ccccc2C)C(=O)C1N=Nc1ccc(S(=O)(=O)c2ccc(N=NC3C(=O)N(C(=O)CC(=O)Nc4ccccc4C)N=C3C)cc2)cc1 (stereo not given) | > 50.1 | > 50.1 µM | 
62 | CC(C)(C)OC(=O)[C@H]1CCC(=S)N1Cc1ccccc1 | > 200 | > 200 µM | 
63 | C=C(C)[C@@]1(O[Si](C)(C)C)CCCC[C@@H]1CC(Sc1ccccc1)Sc1ccccc1 | > 200 | 11.5 µM | 
64 | COC(=O)C(Cc1ccccc1)C(=O)NC(CNC(=O)OCc1ccccc1)C(=O)OCc1ccccc1 (stereo not given) | > 200 | 29.5 µM | 
65 | O=c1c(N(CCO)CCO)cn(C(c2ccccc2)(c2ccccc2)c2ccccc2)c(=O)n1C(c1ccccc1)(c1ccccc1)c1ccccc1 | > 200 | 3.02 µM | 
66 | S=c1[nH]n2c(CCCCCCCCc3nnc4sc(=S)[nH]n34)nnc2s1 | 123 | 178 µM | 
67 | CCOC(=N)CNC(=O)c1ccccc1 | > 200 | > 200 µM | 
68 | CNS(=O)(=O)NNS(=O)(=O)c1ccc(F)cc1 | > 631 | 214 µM | 
69 | NC(CSS(=O)(=O)O)=NCCCc1nc2ccccc2[nH]1 | > 200 | 45.7 µM | 

Row | Compound | EC50 [µM] | IC50 | outcome
70 | Cn1cc(C(=O)NCCC(=N)N)cc1NC(=O)C1=[N+](C)C=C(NC(=O)c2cccc(C(=O)NC3=CC(C(=O)Nc4cc(C(=O)NCCC(=N)N)cn4C)=[N+](C)C3)c2)C1 | 3.47 | 74.1 µM | 
71 | CSSCc1ccccc1 | > 200 | 19.1 µM | 
72 | CCOC(=O)C(C(=O)OCC)C(c1ccc(OC)cc1)N1CCN(C(c2ccc(OC)cc2)C(C(=O)OCC)C(=O)OCC)CC1 (stereo not given) | > 100 | > 100 µM | 
73 | CN(c1ccc(/C=C/c2ccccc2)cc1)P1(=O)NCCCO1 (stereo not given) | > 41.7 | 28.2 µM | 
74 | O/N=C1/CCCC/C1=C\c1ccc(Cl)c(Cl)c1 |  |  | inactive
75 | Cc1c(C#N)c2nnn(-c3ccccc3)c(=O)n2c1-c1ccccc1 | > 200 | 1.02 µM | 
76 | CC(=NNC(=S)Nc1cccc(C)c1)c1cccc(C(C)=NNC(=S)Nc2cccc(C)c2)n1 | > 200 | 27.5 µM | 
77 | COC(=O)c1csc(-c2csc(CCNC(=O)OC(C)(C)C)n2)n1 | > 355 | 60.3 µM | 
78 | CCCC(=O)C(C)=C(OC)OC |  |  | inactive
79 | CN(C)/C=C/c1nnnn1-c1ccc(I)cc1 | > 200 | 33.1 µM | 
80 | CCOC(=O)Cn1c(=O)c2nc(SC)sc2n(-c2ccc(C)cc2)c1=S | > 200 | > 200 µM | 
81 | O=c1[nH]c2ccccc2c(=O)n1/N=C/c1ccc(O)cc1 | > 200 | > 200 µM | 
82 | O=C1c2c(ccc3c2CCC3)CC12Cc1cc3c(cc1C2)CCC3 | > 200 | > 200 µM | 
83 | O=c1oc2c(-c3ccccc3)cccc2c(O)c1-c1ccccc1 | > 200 | 85.1 µM | 
84 | O=c1[nH]nc(Cc2ccc(Cl)cc2)n1CCO | > 200 | > 200 µM | 
85 | O=C1OC(=O)C2C3CCCCC3=C3CCCCC3C12 (stereo not given) | > 200 | > 200 µM | 
86 | Cc1ccc(-c2nc3ccccc3c(=O)n2NC2OC(CO)C(O)C(O)C2O)cc1 (stereo not given) |  |  | inactive
87 | CCCOC1=NC2=NC(OCCC)=NC3=C(Br)C=C(Br)C(=N1)N23 | > 42.7 | > 42.7 µM | 
88 | Oc1ccc(I)c2cccnc12 | > 182 | 2.19 µM | 
89 | O=C(/C=C\c1cccc2ccccc12)c1ccc(Cl)cc1Cl | > 1.66 | > 1.66 µM | 
